These results are taken from US9089605B2, “Quinone derivatives, pharmaceutical compositions, and uses thereof” (Indiana University Research and Technology Corporation, priority 2007, dated 2015).

A short description of data set [1]: Qualitative solubility in solvents. It counts as physicochemical. The note with it: listed solvents.
Data set [2] deals with avidin (Gallus gallus, UniProt P02701). The following applies: cited from earlier work.

Entries after “also recorded” stand apart in the source; their conditions may differ.

avidin, sequence (P02701 25-152, species assumed): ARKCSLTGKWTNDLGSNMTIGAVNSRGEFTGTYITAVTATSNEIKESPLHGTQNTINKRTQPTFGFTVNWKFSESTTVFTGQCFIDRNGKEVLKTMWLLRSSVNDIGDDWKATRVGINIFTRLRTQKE

For orientation: melting point means the temperature, or range, at which the solid turns liquid. `O=C(O)CCCC[C@H]1[C@H]2NC(=O)N[C@H]2CS1(=O)=O` [Compound 89, 5-((1R,5S,6S)-3,7,7-trioxo-7-thia-2,4-diazabicyclo[3.3.0]oct-6-yl)pentanoic acid] showed a melting point of 255 °C. For the same compound, in data set [1], the “solubility (qualitative)” value was “Insoluble in CH2Cl2, acetone, MeOH, water; also recorded: Soluble in DMSO and NaOH aq”. In data set [2], the “avidin binding weaker than biotin” value is “approximately 3 fold”.

In the case of `CC(C)(C)OC(=O)NCCCCCCNC(=O)CCCC[C@H]1[C@H]2NC(=O)N[C@H]2CS1(=O)=O` [Compound 110, N—(N′-tert-butoxycarbonyl-6-aminohexyl)-5-((1R,5S,6S)-3,7,7-trioxo-7-thia-2,4-diazabicyclo[3.3.0]oct-6-yl)pentanamide], the melting point is 213 to 215 °C. The “solubility (qualitative)” value in data set [1] is listed as “Insoluble: CH2Cl2, acetone, NaOH aq; also recorded: Mildly Soluble MeOH, EtOH; also recorded: Soluble: DMSO”.

Turning to `C[C@@H]1NC(=O)N[C@@H]1CCCCCC(=O)NCCCCCCNC(=O)OC(C)(C)C` [Compound 111, N—(N′-tert-butoxycarbonyl-6-aminohexyl)-6-[(4R,5S)-5-methyl-imidazolidin-2-on-4-yl]hexanamide], the “solubility (qualitative)” value in data set [1] is reported as “Insoluble: EtOAc, Et2O, H2O, NaOH aq; also recorded: Soluble: acetone, CH2Cl2”.

`C[C@@H]1NC(=O)N[C@@H]1CCCCCC(=O)O` [Desthiobiotin, 6-[(4R,5S)-5-methyl-imidazolidin-2-on-4-yl]hexanoic acid, reference compound]: the “solubility (qualitative)” value in data set [1] (listed as 93) is recorded as “Insoluble: CH2Cl2, H2O, acetone; also recorded: Soluble: NaOH aq”.
